Measurements: patent US7091033B2, “Array of toxicologically relevant canine genes and uses thereof” (Phase-1 Molecular Toxicology, Inc., priority 2000, dated 2006)
Read-outs that look alike come from different tables or passages of the source.

Tests used:
Format in all cases: in vivo
[1] = system: Cytochrome P450 2B (gene expression); test: Canine array gene expression profile of liver from dog dosed with erythromycin estolate; conditions: dog, liver, 100 mg/kg
Protocol: (§1) For liver or kidney, about 0.15-0.20 g of tissue was weighed and placed in a 15 ml conical tube. All tissue were kept on dry ice when other samples were being weighed.
(§2) About 3.8 ml of RLT buffer was added to the tube containing the sample. The RLT buffer® from Qiagen can be prepared beforehand by adding 10 μl betamercaptoethanol to each 1.0 ml of lysis buffer needed. The tissue was homogenized using the rotor-stator homogenizer for 45 seconds. A IKA Ultra Turrax T25 homogenizer set at speed 4 with the S25N-10G dispersing element can be used. Alternatively, a Virtishear Cyclone 750W rotor/stator homogenizer (Virtis item #278077) can be used with the 7 mm microfine sawtooth shaft and generator (195 mm long with a processing range of 0.25 ml to 20 ml, item #372718). After homogenization, samples were stored on ice until all samples were homogenized. To clean the homogenizing tip between samples, the tip was first run for a few seconds in 95% ethanol and then rinsed by squirting with fresh 95% ethanol. This process was repeated with nanopure water.
(§3) The tissue lysate was centrifuged at room temperature for 10 minutes at 3700-3800 rpm in a Beckman GS-6 (or equivalent) centrifuge to remove nuclei thus reducing DNA contamination.
(§4) The supernatant of the lysate was transferred to a clean 15 ml conical tubes containing an equal volume of 70% EtOH in DEPC treated H2O, being careful not to include any of the pellet or fatty layer and mixed. About 3.8 ml of sample was added to the RNeasy spin column placed in a 15 ml centrifuge tube and centrifuged at 3000×g (3690-3710 rpm, Beckman GS-6) for 5 min. The flow-through was discarded. The remaining sample was added to the appropriate column and spun at 3000×g for 5 minutes and the flow-through was discarded.
(§5) About 4.0 ml of Buffer RW1 (Qiagen®) was added to the column and spun as before then about 2.5 ml of buffer RPE (Qiagen®) was added to column and spun at 3000×g (3690-3710 rpm, Beckman GS-6) for 2 minutes. In this example, RPE buffer was supplied as a concentrate so 4 volumes of 95% EtOH was added before use. For the midi kit, about 220 ml of 95% EtOH would be added to 55 ml of RPE. Another 2.5 ml of buffer RPE was added and spun for 5 minutes to also dry out column. The column, including the tip, should be dry for the next elution step.
(§6) For elution, the column that has the RNA bound to a clean 15 ml tube was transferred and 200 μl of RNase-free water was added to the column, allowed to sit for 1 minute, and spun for 3 minutes at 3000×g (3690-3710 rpm, Beckman GS6). This step was repeated into the same tube but with 200 μl RNase-free water.
(§7) Liver and kidney organs were isolated from a dog which was dosed with erythromycin esolate at 100 mg/kg/day for 2 or 10 days. The dog was euthanized 16 hours after the last dosage and the organs were harvested according to standard sterile procedure. RNA was isolated from the kidney and liver as detailed in Example 1. cDNA was made from the RNA and used as probes as detailed in the Examples above.

Cytochrome P450 2C21 = test: Canine array gene expression profile of kidney from dog dosed with erythromycin estolate; conditions: dog, kidney, 100 mg/kg
Protocol: as §1, §2, §3, §4, §5, §6, §7

[2] = system: Glutathione S-transferase alpha subunit; test: as above; conditions: dog, kidney, 100 mg/kg
Protocol: as §1, §2, §3, §4, §5, §6, §7

[3] = system: Multidrug resistant protein-1; test: as above; conditions: dog, kidney, 100 mg/kg
Protocol: as §1, §2, §3, §4, §5, §6, §7

Glucose transporter = test: as above; conditions: dog, kidney, 100 mg/kg
Protocol: as §1, §2, §3, §4, §5, §6, §7

[4] = system: Cytochrome P450 2D (gene expression); test: as above; conditions: dog, kidney, 100 mg/kg
Protocol: as §1, §2, §3, §4, §5, §6, §7

[5] = system: canine kidney gene expression; test: as above; conditions: Canis lupus familiaris, 240 h, 10 days
Protocol: as §1, §2, §3, §4, §5, §6, §7

Cytochrome P450 2C41 = test: as above; conditions: dog, kidney, 100 mg/kg
Protocol: as §1, §2, §3, §4, §5, §6, §7

Cytochrome P450 3A = test: as above; conditions: dog, kidney, 100 mg/kg
Protocol: as §1, §2, §3, §4, §5, §6, §7

- fold induction at 10 days [1]: 1.9
- fold induction at 10 days (Cytochrome P450 2C21): 1.1
- fold induction at 10 days [2]: 1.1
- fold induction at 10 days [3]: 1.2
- fold induction at 10 days (Glucose transporter): 1.1
- fold induction at 10 days [4]: 1.1
- fold induction at 10 days (Cytochrome P450 2C41): 1.2
- fold induction at 10 days (Cytochrome P450 3A): 1.3
SMILES: CCC(=O)O[C@H]1[C@H](O[C@@H]2[C@@H](C)[C@H](O[C@H]3C[C@@](C)(OC)[C@@H](O)[C@H](C)O3)[C@@H](C)C(=O)O[C@H](CC)[C@@](C)(O)[C@H](O)[C@@H](C)C(=O)[C@H](C)C[C@@]2(C)O)O[C@H](C)C[C@@H]1N(C)C [erythromycin estolate]
- fold induction at 100 mg/kg ([5]; read-out: Alkaline phosphatase fold induction): 1.6
- fold induction at 100 mg/kg ([5]; read-out: Angiopoietin-related protein 3 (ANGPTL3) fold induction): 1
- fold induction at 100 mg/kg ([5]; read-out: BRCA1 fold induction): 1.2
- fold induction at 100 mg/kg ([5]; read-out: Beta-glucuronidase fold induction): 1.1
- fold induction at 100 mg/kg ([5]; read-out: Catalase fold induction): 1.2
- fold induction at 100 mg/kg ([5]; read-out: Caveolin-1 fold induction): 1
- fold induction at 100 mg/kg ([5]; read-out: Caveolin-2 fold induction): 1.6
- fold induction at 100 mg/kg ([5]; read-out: Cubilin fold induction): 1.1
- fold induction at 100 mg/kg ([5]; read-out: Cytochrome c oxidase subunit VIIaL fold induction): 1
- fold induction at 100 mg/kg ([5]; read-out: Decorin fold induction): 1.1
- fold induction at 100 mg/kg ([5]; read-out: FGFR2 fold induction): 1.1
- fold induction at 100 mg/kg ([5]; read-out: GRP94 fold induction): 1.1
- fold induction at 100 mg/kg ([5]; read-out: Gadd45 fold induction): 1
- fold induction at 100 mg/kg ([5]; read-out: Glucose-regulated protein 94 #1 fold induction): 1.4
- fold induction at 100 mg/kg ([5]; read-out: N-cadherin fold induction): 1.1
- fold induction at 100 mg/kg ([5]; read-out: Phase-1 CCT-4 fold induction): 1.1
- fold induction at 100 mg/kg ([5]; read-out: Phase-1 CCT-8 fold induction): 1.1
- fold induction at 100 mg/kg ([5]; read-out: Phase-1 CCT-12 fold induction): 1.1
- fold induction at 100 mg/kg ([5]; read-out: Phase-1 CCT-13 fold induction): 1
- fold induction at 100 mg/kg ([5]; read-out: Phase-1 CCT-14 fold induction): 1
- fold induction at 100 mg/kg ([5]; read-out: Phase-1 CCT-16 fold induction): 1
- fold induction at 100 mg/kg ([5]; read-out: Phase-1 CCT-17 fold induction): 1
- fold induction at 100 mg/kg ([5]; read-out: Phase-1 CCT-18 fold induction): 1.2
- fold induction at 100 mg/kg ([5]; read-out: Phase-1 CCT-19 fold induction): 1.2
- fold induction at 100 mg/kg ([5]; read-out: Phase-1 CCT-27 fold induction): 1.4
- fold induction at 100 mg/kg ([5]; read-out: Phase-1 CCT-30 fold induction): 1.3
- fold induction at 100 mg/kg ([5]; read-out: Phase-1 CCT-31 fold induction): 1.1
- fold induction at 100 mg/kg ([5]; read-out: Phase-1 CCT-32 fold induction): 1.1
- fold induction at 100 mg/kg ([5]; read-out: Phase-1 CCT-33 fold induction): 1.1
- fold induction at 100 mg/kg ([5]; read-out: Phase-1 CCT-34 fold induction): 1.1
- fold induction at 100 mg/kg ([5]; read-out: Phase-1 CCT-36 fold induction): 1
- fold induction at 100 mg/kg ([5]; read-out: Phase-1 CCT-40 fold induction): 1.2
- fold induction at 100 mg/kg ([5]; read-out: Phase-1 CCT-41 fold induction): 1.2
- fold induction at 100 mg/kg ([5]; read-out: Phase-1 CCT-42 fold induction): 1.1
- fold induction at 100 mg/kg ([5]; read-out: Phase-1 CCT-43 fold induction): 1.2
- fold induction at 100 mg/kg ([5]; read-out: Phase-1 CCT-49 fold induction): 1
- fold induction at 100 mg/kg ([5]; read-out: Phase-1 CCT-50 fold induction): 1.1
- fold induction at 100 mg/kg ([5]; read-out: Phase-1 CCT-51 fold induction): 1.2
- fold induction at 100 mg/kg ([5]; read-out: Phase-1 CCT-52 fold induction): 1.1
- fold induction at 100 mg/kg ([5]; read-out: Phase-1 CCT-53 fold induction): 1
- fold induction at 100 mg/kg ([5]; read-out: Phase-1 CCT-55 fold induction): 1.1
- fold induction at 100 mg/kg ([5]; read-out: Phase-1 CCT-56 fold induction): 1.1
- fold induction at 100 mg/kg ([5]; read-out: Phase-1 CCT-58 fold induction): 1.5
- fold induction at 100 mg/kg ([5]; read-out: Phase-1 CCT-59 fold induction): 1
- fold induction at 100 mg/kg ([5]; read-out: Phase-1 CCT-60 fold induction): 1.1
- fold induction at 100 mg/kg ([5]; read-out: Phase-1 CCT-62 fold induction): 1.1
- fold induction at 100 mg/kg ([5]; read-out: Phase-1 CCT-65 fold induction): 1.1
- fold induction at 100 mg/kg ([5]; read-out: Phase-1 CCT-66 fold induction): 1.1
- fold induction at 100 mg/kg ([5]; read-out: Phase-1 CCT-73 fold induction): 1.1
- fold induction at 100 mg/kg ([5]; read-out: Phase-1 CCT-76 fold induction): 1
- fold induction at 100 mg/kg ([5]; read-out: Phase-1 CCT-82 fold induction): 1
- fold induction at 100 mg/kg ([5]; read-out: Phase-1 CCT-84 fold induction): 1.1
- fold induction at 100 mg/kg ([5]; read-out: Phase-1 CCT-87 fold induction): 1.2
- fold induction at 100 mg/kg ([5]; read-out: Phase-1 CCT-88 fold induction): 1.2
- fold induction at 100 mg/kg ([5]; read-out: Phase-1 CCT-89 fold induction): 1.1
- fold induction at 100 mg/kg ([5]; read-out: Phase-1 CCT-91 fold induction): 1.1
- fold induction at 100 mg/kg ([5]; read-out: Phase-1 CCT-93 fold induction): 1
- fold induction at 100 mg/kg ([5]; read-out: Proliferating cell nuclear antigen gene fold induction): 1.1
- fold induction at 100 mg/kg ([5]; read-out: Prostaglandin D synthase fold induction): 1.2
- fold induction at 100 mg/kg ([5]; read-out: Rab2 fold induction): 1.2
- fold induction at 100 mg/kg ([5]; read-out: Rab5 fold induction): 1.1
- fold induction at 100 mg/kg ([5]; read-out: Rab7 fold induction): 1.4
- fold induction at 100 mg/kg ([5]; read-out: Superoxide dismutase Mn fold induction): 1.1
- fold induction at 100 mg/kg ([5]; read-out: TFCOUP-related (probable steroid hormone receptor) fold induction): 1.1
- fold induction at 100 mg/kg ([5]; read-out: TPRD fold induction): 1.1
- fold induction at 100 mg/kg ([5]; read-out: UV excision repair protein RAD 23 (XP-C) fold induction): 1.2
- fold induction at 100 mg/kg ([5]; read-out: c-erb B-2 fold induction): 1.4
- fold induction at 100 mg/kg ([5]; read-out: p53 fold induction): 1.4
- fold induction at 100 mg/kg ([5]; iv, read-out: ZAP36/annexin IV fold induction): 1.6
